Where “and” joins values, the source holds several entries; their conditions need not be identical. Equal values may be shown once.
Assays:
[1] = system: P. falciparum W-2 (multi-drug resistant W-2 clone); test: In vitro drug combination sensitivity (Desjardins hypoxanthine incorporation), W-2 clone; type: cell-based; conditions: drug combined with compound of Example 1, positive = synergistic, negative = antagonism, 0 = additive
Method: (§1) Antimalarial activity in this system is assessed by inhibition of radiolabelled hypoxanthine incorporation into parasites by graded concentrations of drugs.
(§2) The drugs tested and their solvents are listed below:
(§3) In order to study drug combinations, drug solutions at starting concentrations were combined in various ratios and 1:5,1:2,2:1 and 5:1). […] Serial 1:3 dilutions of the drugs with media were made to fill the 96-well microtitre plate using a 12-channel pipetter. To evaluate drugs classified as dihydrofolic acid reductase (DHFR) inhibitors, modified culture medium was used which contained only physiologic concentrations of folic acid and PABA.
(§4) Individual IC50 s were calculated using the "MINSQ" program from Micromath Scientific Software. Each set of paired data was fitted to the hyperbolic tangent function used by Desjardins.
(§5) An isobologram was constructed by fitting the data to the equation:
(§6) Y1-[Xi /(Xi +e^I *(1-Xi))]
(§7) I=interaction parameter indicating degree of reversal
Positive values of I indicated a synergistic combination, negative values indicated antagonism and I=O indicated additive interaction. […]

[2] = system: P. falciparum D-6 (drug-sensitive but melfloquine resistant D-6 clone); test: In vitro drug combination sensitivity (Desjardins hypoxanthine incorporation), D-6 clone; type: cell-based; conditions: drug combined with compound of Example 1, positive = synergistic, negative = antagonism, 0 = additive
Method: as §1, §2, §3, §4, §5, §6, §7
(§8) Positive values of I indicated a synergistic combination, negative values indicated antagonism and I=O indicated additive interaction.
(§9) The optimum ratio of the combination with proguanil was estimated for each of the three strains of malaria parasite by determining the ratio of the IC50 of proguanil to the IC50 of the compound of Formula (II).

[3] = system: T. gondii C56 strain; test: Anti-Toxoplasma activity in vivo, mouse model of T. gondii; design: species or system T. gondii; CBA/CA mice; conditions: oral gavage; for Mean Time to Death: 10 days
Excerpt: Comparison of anti-Toxoplasma activities in vivo of compound of Example 1, proguanil and combinations thereof
Activities of the compounds and combinations were examined in a mouse model of T. gondii, using the increase in time to death and percent survival of the mice as measures of drug activity.
Groups of 10, 20 gm CBA/CA mice were infected orally by gavage with 6 cysts of the C56 strain of T. gondii and drug treatment was started 3 days later and continued for 10 day. All drugs were administered orally by gavage. The following groups were examined:
All animals were examined twice daily for 30 days and all deaths recorded.

[4] = system: Pneumocystis; test: Anti-Pneumocystis activity in vivo, scid mouse model of Pneumocystis pneumonia; design: species or system P. carinii; scid mice; key to Mean Score ±SE: score 0 = no infection, +4 = very heavy infection; conditions: for number of mice with SCORE 0: 0 = no infection; for % of Control: mean score
Method: Comparison of anti-Pneumocystis activities in vivo of compound of Example 1 proguanil and combinations thereof
Activities of the compounds and combinations were examined in a scid mouse model of Pneumocystis pneumonia.
The level of infection of mice in each group was measured using standard lung impression smears and immunofluorescence tests. A score was assigned to each mouse where 0=no infection and +4=very heavy infection.

[5] = system: P. falciparum C2B (isolate resistant to the compound of example 1); type: cell-based; conditions: drug combined with compound of Example 1, positive = synergistic, negative = antagonism, 0 = additive
Method: as §1, §2, §3, §4, §5, §6, §7, §8, §9

[6] = 25 mg/kg p.o. daily, +4 = very heavy infection

**Q.** What does the source list for `Oc1ncnc2[nH]ncc12` [Allopurinol]?
**A.** I (interaction parameter) [1]: 1.14; I (interaction parameter) [2]: 0.43

**Q.** `C[C@H]1[C@H](OC(=O)CCC(=O)O)O[C@@H]2O[C@@]3(C)CC[C@H]4[C@H](C)CC[C@@H]1[C@@]24OO3` [Artesunic acid] was tested. Which “I (interaction parameter)” value [2] did it give?
**A.** The value was -0.18.

**Q.** How did the percent survival ([3]; 10 mg/kg) turn out when `O=C1C(O)=C([C@H]2CC[C@H](c3ccc(Cl)cc3)CC2)C(=O)c2ccccc21` [Atovaquone, 2-[4-(4-chlorophenyl)cyclohexyl]-3-hydroxy-1,4-naphthoquinone] was run?
**A.** The percent survival was 10%.

**Q.** What about the “Mean Time to Death” value ([3]; 10 mg/kg) of the same molecule?
**A.** Its value is 20.1 days.

**Q.** What about the percent survival ([3]; 25 mg/kg) of the same molecule?
**A.** The percent survival was 10%.

**Q.** And the “Mean Time to Death” value ([3]; 25 mg/kg)?
**A.** Its value is 24.1 days.

**Q.** And the “Mean Score ±SE” value ([4]; 25 mg/kg p.o. daily)?
**A.** Its value is 3.10 ± 0.17.

**Q.** What about the “No. Infected/No. Examined” value ([4]; 25 mg/kg p.o. daily) of the same molecule?
**A.** The value was 10/10.

**Q.** What about the “number of mice with SCORE +1” value ([4]; 25 mg/kg p.o. daily) of the same molecule?
**A.** Its value is 0.

**Q.** What about the “number of mice with SCORE +3” value ([4]; 25 mg/kg p.o. daily) of the same molecule?
**A.** The value was 1.

**Q.** What about the “number of mice with SCORE +4” value ([4]; 25 mg/kg p.o. daily) of the same molecule?
**A.** The value was 7.

**Q.** And the “number of mice with SCORE 0” value ([4]; 25 mg/kg p.o. daily)?
**A.** The value was 0.

**Q.** What about the “number of mice with SCORE +4” value [4, 6] of the same molecule?
**A.** Its value is 2.

**Q.** And the “Mean Score ±SE” value ([4]; 50 mg/kg p.o. daily)?
**A.** The value was 2.50 ± 0.16.

**Q.** And the “No. Infected/No. Examined” value ([4]; 50 mg/kg p.o. daily)?
**A.** The value was 10/10.

**Q.** What about the “number of mice with SCORE +1” value ([4]; 50 mg/kg p.o. daily) of the same molecule?
**A.** The value was 0.

**Q.** And the “number of mice with SCORE +3” value ([4]; 50 mg/kg p.o. daily)?
**A.** The value was 5.

**Q.** What about the “number of mice with SCORE +4” value ([4]; 50 mg/kg p.o. daily) of the same molecule?
**A.** Its value is 5.

**Q.** What about the “number of mice with SCORE 0” value ([4]; 50 mg/kg p.o. daily) of the same molecule?
**A.** Its value is 0.

**Q.** What about the “number of mice with SCORE +4” value ([4]; 50 mg/kg p.o. daily, +4 = very heavy infection) of the same molecule?
**A.** Its value is 0.

**Q.** What about the “infection score (in words)” value ([4]; dosed alone) of the same molecule?
**A.** Its value is “reductions in the infection score”.

**Q.** And the “% of Control” value ([4]; 25 mg/kg p.o. daily)?
**A.** The value was 84%.

**Q.** What about the “% of Control” value ([4]; 50 mg/kg p.o. daily) of the same molecule?
**A.** Its value is 68%.

**Q.** How did the “I (interaction parameter)” value [1] turn out when `CCN(CC)CCCC(C)Nc1ccnc2cc(Cl)ccc12` (centres unmarked) [Chloroquine] was run?
**A.** Its value is -1.84.

**Q.** What about the “I (interaction parameter)” value [2] of the same molecule?
**A.** The value was -1.40.

**Q.** How did the “I (interaction parameter)” value [2] turn out when `Cc1nc(C)c(Cl)c(O)c1Cl` [Clopidol] was run?
**A.** Its value is 0.73.

**Q.** `CC1(C)N=C(N)N=C(N)N1c1ccc(Cl)cc1` [Cycloguanil] was tested. Which “I (interaction parameter)” value [1] did it give?
**A.** The value was 2.21.

**Q.** What about the “I (interaction parameter)” value [2] of the same molecule?
**A.** Its value is 1.66.

**Q.** How did the “I (interaction parameter)” value [1] turn out when `Nc1ccc(S(=O)(=O)c2ccc(N)cc2)cc1` [Dapsone] was run?
**A.** The value was -0.39.

**Q.** `OC(c1cc(C(F)(F)F)nc2c(C(F)(F)F)cccc12)C1CCCCN1` (centres unmarked) [Mefloquine] was tested. Which “I (interaction parameter)” value [1] did it give?
**A.** The value was -1.19.

**Q.** Which “I (interaction parameter)” value [1] does the source give for `CCn1cc(C(=O)O)c(=O)c2cc(F)c(N3CCNCC3)cc21` [Norfloxacin] here?
**A.** Its value is 1.02.

**Q.** `CC(C)NC(=N)NC(=N)NOCCCOc1cc(Cl)c(Cl)cc1Cl` [PS-15] was tested. Which “I (interaction parameter)” value [2] did it give?
**A.** Its value is -0.74.

**Q.** `COc1cc(NC(C)CCCN)c2ncccc2c1` (centres unmarked) [Primaquine] was tested. Which “I (interaction parameter)” value [1] did it give?
**A.** Its value is -0.79.

**Q.** Which results are given for `[H]/N=C(\N/C(=N/[H])Nc1ccc(Cl)cc1)NC(C)C` [Proguanil]?
**A.** I (interaction parameter) [2]: 2.56; I (interaction parameter) [5]: 2.56; survivors ([3]; 25 mg/kg): no survivors; toxicity to mice ([3]; 25 mg/kg): exhibits signs of toxicity; Mean Time to Death ([3]; 25 mg/kg): 9.0 days and 9 days; Mean Score ±SE ([4]; 25 mg/kg p.o. daily): 3.80 ± 0.13; No. Infected/No. Examined ([4]; 25 mg/kg p.o. daily): 10/10; number of mice with SCORE +1 ([4]; 25 mg/kg p.o. daily): 0; number of mice with SCORE +3 ([4]; 25 mg/kg p.o. daily): 0; number of mice with SCORE +4 ([4]; 25 mg/kg p.o. daily): 2; number of mice with SCORE 0 ([4]; 25 mg/kg p.o. daily): 0; number of mice with SCORE +4 [4, 6]: 8; prophylaxis of PCP in the scid mouse ([4]; alone at 25 mg/kg/day): ineffective; % of Control ([4]; 25 mg/kg p.o. daily): 85%

**Q.** `CCc1nc(N)nc(N)c1-c1ccc(Cl)cc1` [Pyrimethamine] was tested. Which “I (interaction parameter)” value [1] did it give?
**A.** The value was 0.36.

**Q.** What about the “I (interaction parameter)” value [5] of the same molecule?
**A.** Its value is -0.48.

**Q.** For `Cc1cc(NS(=O)(=O)c2ccc(N)cc2)no1` [Sulfamethoxazole], which “I (interaction parameter)” value [1] is on record?
**A.** The value was 2.75.

**Q.** For `CN(C)C1C(=O)C(C(N)=O)=C(O)C2(O)C(=O)C3=C(O)c4c(O)cccc4C(C)(O)C3CC12` (centres unmarked) [Tetracycline], which “I (interaction parameter)” value [1] is on record?
**A.** Its value is 1.27.

**Q.** What about the “I (interaction parameter)” value [2] of the same molecule?
**A.** Its value is 1.11.

**Q.** What does the source list for `COc1cc(Cc2cnc(N)nc2N)cc(OC)c1OC` [Trimethoprim]?
**A.** I (interaction parameter) [1]: 1.27; I (interaction parameter) [5]: 0.58

**Q.** How did the “I (interaction parameter)” value [1] turn out when `CC1(C)N=C(N)N=C(N)N1OCCCOc1cc(Cl)c(Cl)cc1Cl` [WR99210] was run?
**A.** The value was 0.02.
